Patent EP0255485A2, “Transdermal compositions” (priority 1986, dated 1988)
Structures can show the parent of a compound that is named as a salt. Where two headings read alike, the source gives them in different places.

Columns and labels:
[1] = for P Px*: Px = permeability coefficient of the drug from propylene glycol solution; for Flux^+: expressed in terms of procaterol hydrochloride, concentration could not be measured
[2] = in vitro; settings: mouse
[3] = Extrapolated delivery through human skin, assuming 1/5 the permeability of mouse skin; type: in vitro ADME
Protocol: The permeation of the compounds from the mixture of propylene glycol triacetin was negligible. The concentration of each analgesic can be increased to 3% or 4% in the donor solution and corresponding increases in flux can be expected. […] A usual dose for oxymorphone and hydromorphone is about 6 to 10 mg per day in humans.
Assuming the permeability of human skin to be 1/5 that of mouse skin, a daily flux of 0.68 mg can be achieved in man. The maximum daily dose in man is approximated to be 0.2 mg.

[4] = Vehicle LA:TA:PG 20:50:30, Conc'n. 21.57 mg/ml
[5] = LA:PG:TA 5:30:65, 0.5 wt % analgesic, Conc. 5.5 mg/ml
[6] = LA:PG:TA 10:30:60, 0.5 wt % analgesic, Conc. 5.4 mg/ml
[7] = LA:PG:TA 20:30:50, 0.5 wt % analgesic, Conc. 5.3 mg/ml

Structure (SMILES): CC1CC(=O)NN=C1c1ccc(-n2ccnc2)cc1 (stereo not drawn) [Compound I Base]
- Lag Time ([1]; 0 % Linoleic Acid in propylene glycol, Conc'n. 26.38 mg/ml): 6.2 h
- Flux ([1]; 0 % Linoleic Acid in propylene glycol, Conc'n. 26.38 mg/ml, expressed as hydrochloride salt): 0.4 ug/cm^2/h
- P Px* ([1]; 0 % Linoleic Acid in propylene glycol): 1
- Lag Time ([1]; 10 % Linoleic Acid in propylene glycol, Conc'n. 43 mg/ml): 1.75 h
- Flux ([1]; 10 % Linoleic Acid in propylene glycol, Conc'n. 43 mg/ml, expressed as hydrochloride salt): 492 ug/cm^2/h
- P Px* ([1]; 10 % Linoleic Acid in propylene glycol): 755
- Lag Time ([1]; 40 % Linoleic Acid in propylene glycol, Conc'n. 43 mg/ml): 1.45 h
- Flux ([1]; 40 % Linoleic Acid in propylene glycol, Conc'n. 43 mg/ml, expressed as hydrochloride salt): 337.3 ug/cm^2/h
- P Px* ([1]; 40 % Linoleic Acid in propylene glycol): 517
- Lag Time ([1]; 80 % Linoleic Acid in propylene glycol, Conc'n. 43 mg/ml): 1.29 h
- Flux ([1]; 80 % Linoleic Acid in propylene glycol, Conc'n. 43 mg/ml, expressed as hydrochloride salt): 148.5 ug/cm^2/h
- P Px* ([1]; 80 % Linoleic Acid in propylene glycol): 227
- Lag Time ([1]; 100 % Linoleic Acid, Conc'n. 31.5 mg/ml): 5.35 h
- Flux ([1]; 100 % Linoleic Acid, Conc'n. 31.5 mg/ml, expressed as hydrochloride salt): 24.5 ug/cm^2/h
- P Px* ([1]; 100 % Linoleic Acid): 51
- Flux [1, 4]: 130.14 ug/cm^2/h
- Lag Time [1, 4]: 1.91 h
- P Px* ([1]; Vehicle LA:TA:PG 20:50:30): 400
- Flux ([1]; Vehicle LA:TG 20:80 (TG = tetraglycol), Conc'n. 20.09 mg/ml): 186.69 ug/cm^2/h
- Lag Time ([1]; Vehicle LA:TG 20:80, Conc'n. 20.09 mg/ml): 5.58 h
- P Px* ([1]; Vehicle LA:TG 20:80): 614
- Papp ([2]; Permeability Coefficient (P), 0 % Linoleic Acid in propylene glycol, Conc'n. 26.38 mg/ml): 0.0042 ×10⁻⁶ cm/s
- Papp ([2]; Permeability Coefficient (P), 10 % Linoleic Acid in propylene glycol, Conc'n. 43 mg/ml): 3.18 ×10⁻⁶ cm/s
- Papp ([2]; Permeability Coefficient (P), 40 % Linoleic Acid in propylene glycol, Conc'n. 43 mg/ml): 2.18 ×10⁻⁶ cm/s
- Papp ([2]; Permeability Coefficient (P), 80 % Linoleic Acid in propylene glycol, Conc'n. 43 mg/ml): 0.96 ×10⁻⁶ cm/s
- Papp ([2]; Permeability Coefficient (P), 100 % Linoleic Acid, Conc'n. 31.5 mg/ml): 0.22 ×10⁻⁶ cm/s
- Papp ([2]; Permeability Coefficient (P), Vehicle LA:TA:PG 20:50:30, Conc'n. 21.57 mg/ml): 1.68 ×10⁻⁶ cm/s
- Papp ([2]; Permeability Coefficient (P), Vehicle LA:TG 20:80, Conc'n. 20.09 mg/ml): 2.58 ×10⁻⁶ cm/s
- Papp ([2]; permeability coefficient): 7.6 ×10⁻⁶ cm/s

Structure (SMILES): CN1CC[C@]23c4c5ccc(O)c4O[C@H]2C(=O)CC[C@@]3(O)[C@H]1C5 [OX, Oxymorphone]
- delivered from a 10 cm² patch in humans ([3]; loading concentration increased to 2%, four-fold increase in flux expected): about 12.8 mg/day
- delivery from a 10 cm² patch through human skin ([3]; loading concentration of 0.5%, assuming 1/5 the permeability): about 3.2 mg/day
- Flux [1, 5]: 40.0 ug/cm^2/hr
- Lag Time [1, 5]: 7.6 h
- Flux [1, 6]: 51.5 ug/cm^2/hr
- Lag Time [1, 6]: 4.1 h
- Flux [1, 7]: 66.6 ug/cm^2/hr
- Lag Time [1, 7]: 3.5 h
- delivery from a 10 cm² patch through hairless mouse skin ([1]; loading concentration of 0.5%, equivalent of flux 66.6 ug/cm²/hr): about 16 mg/day
- Papp ([2]; PX10^6, LA:PG:TA 5:30:65, 0.5 wt % analgesic, Conc. 5.5 mg/ml): 2 ×10⁻⁶ cm/s
- Papp ([2]; PX10^6, LA:PG:TA 10:30:60, 0.5 wt % analgesic, Conc. 5.4 mg/ml): 2.7 ×10⁻⁶ cm/s
- Papp ([2]; PX10^6, LA:PG:TA 20:30:50, 0.5 wt % analgesic, Conc. 5.3 mg/ml): 3.5 ×10⁻⁶ cm/s

Structure (SMILES): CCC(NC(C)C)C(O)c1ccc(O)c2[nH]c(=O)ccc12 (stereo not drawn) [Procaterol Hydrochloride]
- daily flux in man [3]: 0.68 mg
- Lag Time ([1]; Solvent System LA:PG:TA 20:30:50, approximate concentration 5 mg/ml): 4.0 h
- Flux ([1]; Solvent System LA:PG:TA 20:30:50, approximate concentration 5 mg/ml, Hydrochloride): 14 ug/cm^2/h
- Flux ([1]; Solvent System LA:PG:TA 20:30:50, approximate concentration 5 mg/ml, listed as procaterol hydrochloride, Hydrochloride): about 14 ug/cm^2/h
- flux value ([1]; formulation containing LA:PG:TA (20:30:50)): 3.36 mg/day/10 cm²
- Papp ([2]; P, Solvent System LA:PG:TA 20:30:50, approximate concentration 5 mg/ml): 0.77 ×10⁻⁶ cm/s

Structure (SMILES): CCC(NC(C)C)C(O)c1ccc(O)c2[nH]c(=O)ccc12 (stereo not drawn) [Procaterol]
- Lag Time ([1]; Ratio of LA:TA:PG 5:85:10): 5.5 h
- Flux^+ ([1]; Ratio of LA:TA:PG 5:85:10): 23.1 ug/cm^2/h
- Lag Time ([1]; Ratio of LA:TA:PG 10:80:10): 4.8 h
- Flux^+ ([1]; Ratio of LA:TA:PG 10:80:10): 44.2 ug/cm^2/h
- Lag Time ([1]; Ratio of LA:TA:PG 15:75:10): 4.05 h
- Flux^+ ([1]; Ratio of LA:TA:PG 15:75:10): 53.2 ug/cm^2/h
- Lag Time ([1]; Ratio of LA:TA:PG 20:50:30): 4.4 h
- Flux^+ ([1]; Ratio of LA:TA:PG 20:50:30): 56.3 ug/cm^2/h
- Lag Time ([1]; Ratio of LA:TA:PG 20:75:5): 4.8 h
- Flux^+ ([1]; Ratio of LA:TA:PG 20:75:5): 33.9 ug/cm^2/h
- Lag Time ([1]; Vehicle Ethyl Linoleate:PG:TA 10:5:85, Drug Conc. 0.855 mg/ml): 6 h
- Flux ([1]; Vehicle Ethyl Linoleate:PG:TA 10:5:85, Drug Conc. 0.855 mg/ml, expressed as procaterol hydrochloride): 9.60 ug/cm^2/h
- Lag Time ([1]; Vehicle Ethyl Linoleate:TG 10:90, Drug Conc. 12.29 mg/ml): 8 h
- Flux ([1]; Vehicle Ethyl Linoleate:TG 10:90, Drug Conc. 12.29 mg/ml, expressed as procaterol hydrochloride): 36.27 ug/cm^2/h
- Lag Time ([1]; Vehicle LA:TA:PG 20:50:30, Procaterol Conc. 40 mg/ml): 1.26 h
- Flux ([1]; Vehicle LA:TA:PG 20:50:30, Procaterol Conc. 40 mg/ml, expressed as hydrochloride salt): 158.6 ug/cm^2/h
- Lag Time ([1]; Vehicle LA:TEC:PG 10:70:20, Drug Conc. 23.03 mg/ml): 14.7 h
- Flux* ([1]; Vehicle LA:TEC:PG 10:70:20, Drug Conc. 23.03 mg/ml, expressed as hydrochloride salt): 33.5 ug/cm^2/h
- Lag Time ([1]; Vehicle LA:TEC:PG 10:80:10, Drug Conc. 16.9 mg/ml): 14.7 h
- Flux* ([1]; Vehicle LA:TEC:PG 10:80:10, Drug Conc. 16.9 mg/ml, expressed as hydrochloride salt): 32.0 ug/cm^2/h
- Lag Time ([1]; Vehicle LA:TEC:PG 20:50:30, Drug Conc. 4.32 mg/ml): 11.2 h
- Flux* ([1]; Vehicle LA:TEC:PG 20:50:30, Drug Conc. 4.32 mg/ml, expressed as hydrochloride salt): 8.5 ug/cm^2/h
- Lag Time ([1]; Vehicle LA:TEC:PG 20:50:30, Drug Conc. 44.7 mg/ml): 7.3 h
- Flux* ([1]; Vehicle LA:TEC:PG 20:50:30, Drug Conc. 44.7 mg/ml, expressed as hydrochloride salt): 65.8 ug/cm^2/h
- Lag Time ([1]; Vehicle LA:TEC:PG 20:60:20, Drug Conc. 19.35 mg/ml): 4.9 h
- Flux* ([1]; Vehicle LA:TEC:PG 20:60:20, Drug Conc. 19.35 mg/ml, expressed as hydrochloride salt): 46.0 ug/cm^2/h
- Flux ([1]; Vehicle LNA:PG:TA 20:15:65 (LNA = Linolenic Acid), Drug Conc. 8.15 mg/ml, expressed as procaterol hydrochloride): 76.27 ug/cm^2/h
- Lag Time ([1]; Vehicle LNA:PG:TA 20:15:65, Drug Conc. 8.15 mg/ml): 2 h
- Lag Time ([1]; Vehicle Oleic Acid:PG:TA 20:30:50, Drug Conc. 15.89 mg/ml): 1.8 h
- Flux ([1]; Vehicle Oleic Acid:PG:TA 20:30:50, Drug Conc. 15.89 mg/ml, expressed as procaterol hydrochloride): 171.76 ug/cm^2/h
- Papp ([2]; P, Vehicle Ethyl Linoleate:PG:TA 10:5:85, Drug Conc. 0.855 mg/ml): 3.12 ×10⁻⁶ cm/s
- Papp ([2]; P, Vehicle Ethyl Linoleate:TG 10:90, Drug Conc. 12.29 mg/ml): 0.82 ×10⁻⁶ cm/s
- Papp ([2]; P, Vehicle LA:TA:PG 20:50:30, Procaterol Conc. 40 mg/ml): 1.1 ×10⁻⁶ cm/s
- Papp ([2]; P, Vehicle LA:TEC:PG 10:70:20, Drug Conc. 23.03 mg/ml): 0.404 ×10⁻⁶ cm/s
- Papp ([2]; P, Vehicle LA:TEC:PG 10:80:10, Drug Conc. 16.9 mg/ml): 0.526 ×10⁻⁶ cm/s
- Papp ([2]; P, Vehicle LA:TEC:PG 20:50:30, Drug Conc. 4.32 mg/ml): 0.547 ×10⁻⁶ cm/s
- Papp ([2]; P, Vehicle LA:TEC:PG 20:50:30, Drug Conc. 44.7 mg/ml): 0.41 ×10⁻⁶ cm/s
- Papp ([2]; P, Vehicle LA:TEC:PG 20:60:20, Drug Conc. 19.35 mg/ml): 0.66 ×10⁻⁶ cm/s
- Papp ([2]; P, Vehicle LNA:PG:TA 20:15:65, Drug Conc. 8.15 mg/ml): 2.6 ×10⁻⁶ cm/s
- Papp ([2]; P, Vehicle Oleic Acid:PG:TA 20:30:50, Drug Conc. 15.89 mg/ml): 3 ×10⁻⁶ cm/s
